Legend:
SCC-9 tumor cells [1] = experiment: Mitochondrial potential by confocal microscopy (MitoRed/DAPI); assay type: cell-based; settings: 24 h, IsCT-P and AC-AFPK-IsCT1 at IC50, others 100 µM, MitoRed, DAPI
Method: (§1) Figure 5 Photomicrographs of tongue squamous cell carcinoma tumor cells (SCC-9 and SCC-25) and macrophages (J774), with mitochondria stained red (MitoRED) and nuclei stained blue (DAPI), analyzed using confocal laser microscopy. The indicated cells were treated at the IC50 values obtained for the IsCT-P and AC-AFPK-IsCT1 peptides and at a concentration of 100 µM for the other peptides for a period of 24 h.
(§2) For the confocal microscopy ana.lysis, tumor and normal cells were cultured in 24-well plates containing round coverslips with RPMI and Leibovitz medium, respectively, supplemented with 10% FBS and incubated with 5% CO2 at 37 °C for 24 h. Samples from the control and treated groups were subjected to the process of removing the culture medium and washing with RPMI medium. A total of 200 nML^−1 of MitoRed (Sigma-Aldrich, USA) was then added and the cells were incubated for 1 h in the dark at 37 °C. After incubation, the cells were washed with PBS, incubated with MitoRed, and fixed with 4% paraformaldehyde for 30 min. The cells were then washed with PBS and incubated. A total of 10 µL of VECTASHIELD® antifade with DAPI (Vector Laboratories, Burlingame, CA, USA) was used on the slide to promote the sealing and marking of the nucleus. The slides were stored in a closed place until the day of reading. Coverslips were placed on slides for observation under a confocal laser fluorescence microscope (Fluoview™ 300) and images were documented and analyzed.

SCC-25 tumor cells [2] = experiment: as above; assay type: cell-based; settings: 24 h, IsCT-P and AC-AFPK-IsCT1 at IC50, others 100 µM, MitoRed, DAPI
Method: as §1, §2

[3] = Resistance to degradation in 25% fetal bovine serum; assay type: in vitro ADME; settings: 25% fetal bovine serum in water, 37 °C, HPLC peak area vs t = 0 h, triplicate
Method: (§3) Figure 1 (a) Helical wheel projections of the IsCT1, AFPK-IsCT1, KKK-IsCT1, and IsCT-P peptides were generated using the Heliquest server (https://heliquest.ipmc.cnrs.fr/, accessed on 15 July 2024). In these projections, yellow, gray, and green circles represent hydrophobic amino acids, while blue and pink circles denote hydrophilic amino acids. (b) Resistance to degradation assays for all peptides were performed over 6 h in a solution containing 25% fetal bovine serum (FBS). These experiments were conducted in triplicate and aliquots were collected for analysis at 0, 0.5, 1, 2, 4, and 6 h of incubation. The aliquots were subsequently analyzed using high-performance liquid chromatography (HPLC) after each incubation period. The degradation kinetics of the peptides were determined by comparing the integrated peak area associated with the peptide at the start of the experiment (t = 0 h) with the integrated peak area at subsequent time points (t = 0.5, 1, 2, 4, 6 h). (c) The hemolytic activity of synthetic peptides analogous to IsCT1 was assessed on human erythrocytes within a concentration range of 0.13–128 μmol L^−1 in phosphate-buffered saline (PBS) (n = 3). A 1% solution of sodium dodecyl sulfate (SDS) in PBS served as a positive control, while PBS alone was used as a negative control. (d) A table summarizing the sequences, molecular weights, and physicochemical properties of the IsCT1, AFPK-IsCT1, and KKK-IsCT1 peptides. […]
Stability assays were conducted using GIBCO (Waltham, MA, USA) fetal bovine serum diluted to 25% in water, as described by Torres et al.. Briefly, peptide solutions were added to the serum solution and maintained at 37 °C. The experiments were carried out in triplicate and samples were taken at 0, 0.5, 1, 2, 4, and 6 h post incubation. The degradation kinetics were monitored using liquid chromatography and the percentage of remaining peptides was calculated by integrating the peak area of the peptide.

SCC-9 tumor cells [4] = experiment: Mitochondrial membrane electrical potential (ΔΨm) by flow cytometry; assay type: cell-based; settings: 24 h, IsCT-P and AC-AFPK-IsCT1 at IC50, others 100 µM, MitoRed, mean ± SD of three independent experiments
Method: (§4) Figure 4 Analysis of mitochondrial electrical potential (ΔΨm) using flow cytometry following a 24 h treatment with synthetic analogs of IsCT1 peptides. The indicated cells were treated at the IC50 values obtained for the IsCT-P and AC-AFPK-IsCT1 peptides and at a concentration of 100 µM for the other peptides. (a) Representative histograms of cell distribution according to ΔΨm; (b) bar graph showing ΔΨm expressed as the mean ± SD of three independent experiments of SCC-9 tumor cells; (c) bar graph showing ΔΨm expressed as the mean ± SD of three independent experiments of SCC-25 tumor cells; (d) bar graph showing ΔΨm expressed as the mean ± SD of three independent experiments of normal FN1 cells; (e) bar graph showing ΔΨm expressed as the mean ± SD of three independent experiments of normal J774 cells. Statistical differences were obtained using ANOVA and Tukey–Kramer multiple comparison tests. * p < 0.05, ** p < 0.01, and *** p < 0.001 denote significance. ns = not significant.
(§5) Tumor (SSC-9 and SSC-25) and normal cells (FN1 and J-774) were subjected to treatment for a period of 24 h at the peptides’ IC50 concentrations. After treatment, the cells were trypsinized, centrifuged at 1200 rpm for 5 min, the supernatant was discarded, and the cells were resuspended in complete medium containing MitoRed™ (Sigma-Aldrich, USA) (200 nM/L). Subsequently, the samples were incubated in an incubator at 37 °C with 5% CO2 for 30 min. The tubes were then centrifuged, the supernatant was discarded, and the pellet was resuspended in 200 μL of FACS buffer. Readings were performed using a FACScanto flow cytometer (BD) with 10,000 events, and histograms were acquired and analyzed using FCS Express software 2.0.

SCC-25 tumor cells [5] = experiment: as above; assay type: cell-based; settings: 24 h, IsCT-P and AC-AFPK-IsCT1 at IC50, others 100 µM, MitoRed, mean ± SD of three independent experiments
Method: as §4, §5

human erythrocytes = experiment: Hemolytic activity assay; assay type: cell-based; settings: 0.13–128 μmol L−1 in PBS, n = 3; 1% SDS positive control, PBS negative control
Method: as §3, with “3).” for “3). A 1% solution of sodium dodecyl sulfate (SDS) in PBS served as a positive control, while PBS alone was used as a negative control. (d) A table summarizing the sequences, molecular weights, and physicochemical properties of the IsCT1, AFPK-IsCT1, and KKK-IsCT1 peptides.”
Cell survival was assessed using an MTT assay. […] Absorbance was then measured at a wavelength of 540 nm using a microplate reader. […]

Substance | change in mitochondrial electric potential (confocal) (SCC-9 tumor cells [1]) | change in mitochondrial electric potential (confocal) (SCC-25 tumor cells [2]) | remaining at 1 h ([3]; 1 h, read-out: peptide remaining intact after 1 h) | remaining at 4 h ([3]; 4 h, read-out: peptide remaining intact after 4 h) | decrease in ΔΨm (SCC-9 tumor cells [4]) | decrease in ΔΨm (SCC-25 tumor cells [5]) | hemolytic activity (human erythrocytes) | metabolised at 0.5 h ([3]; 30 min)
H-ILKKIWKPIKKLF-NH2 [IsCT-P] | promoted a reduction in the mitochondrial electric potential | promoted a reduction in the mitochondrial electric potential | 70% | 18% | 21.2 ± 5.1% | 44.4 ± 4.8% | caused the hemolysis | 
Ac-ALGKFWPKIKSLF-NH2 [AC-AFPK-IsCT1] | promoted a reduction in the mitochondrial electric potential | promoted a reduction in the mitochondrial electric potential |  |  | 16.3 ± 2.7% | 31.5 ± 5.4% | did not show hemolytic activity at high concentrations | 18%

From PMC11478212, “Antitumoral and Antiproliferative Potential of Synthetic Derivatives of Scorpion Peptide IsCT1 in an Oral Cavity Squamous Carcinoma Model” (Molecules, 2024)
